Measurements reported in patent US20110224135A1 (priority 2008, published 2011).

Legend:
[1] = rat, in vivo
[2] = target: T1, human Kv1.7 channel (human), Q96RP8; experiment: cell-based or functional assay
T1 chain: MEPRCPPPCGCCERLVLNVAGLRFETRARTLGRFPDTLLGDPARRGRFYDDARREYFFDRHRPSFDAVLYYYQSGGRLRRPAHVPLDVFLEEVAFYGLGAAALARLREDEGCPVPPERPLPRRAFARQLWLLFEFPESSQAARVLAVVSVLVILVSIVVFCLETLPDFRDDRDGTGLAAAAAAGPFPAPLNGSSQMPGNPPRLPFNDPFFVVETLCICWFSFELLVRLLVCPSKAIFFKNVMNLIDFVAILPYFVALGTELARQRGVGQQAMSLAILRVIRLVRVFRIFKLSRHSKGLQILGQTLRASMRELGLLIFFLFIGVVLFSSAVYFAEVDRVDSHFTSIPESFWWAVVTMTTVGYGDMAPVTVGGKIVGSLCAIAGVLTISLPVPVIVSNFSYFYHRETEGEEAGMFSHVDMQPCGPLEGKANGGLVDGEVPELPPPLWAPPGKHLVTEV

[3] = target: T2, mouse Kv1.7 channel (mouse), Q17ST2; experiment: cell-based or functional assay
T2 chain: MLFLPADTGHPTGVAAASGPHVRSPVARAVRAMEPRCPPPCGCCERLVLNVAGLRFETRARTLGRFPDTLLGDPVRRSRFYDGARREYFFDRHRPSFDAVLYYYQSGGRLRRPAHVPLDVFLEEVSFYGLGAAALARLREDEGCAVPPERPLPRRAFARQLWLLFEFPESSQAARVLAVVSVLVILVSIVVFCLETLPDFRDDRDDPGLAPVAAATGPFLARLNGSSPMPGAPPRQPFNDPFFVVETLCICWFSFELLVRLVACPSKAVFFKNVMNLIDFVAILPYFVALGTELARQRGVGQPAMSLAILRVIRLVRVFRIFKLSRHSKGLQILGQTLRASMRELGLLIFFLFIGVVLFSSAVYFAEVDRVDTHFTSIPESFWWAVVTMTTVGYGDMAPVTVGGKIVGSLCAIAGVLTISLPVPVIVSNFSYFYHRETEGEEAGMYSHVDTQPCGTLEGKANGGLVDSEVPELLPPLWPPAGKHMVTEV

Molecule | AUC calculated from the glucose profiles [1] [g·min/L] | AUC of the insulin profiles [1] [ng·min/mL] | Glucose-induced blood glucose increase [1] | IC50 of block of channel currents (HEK-293 cells) [2] [nM] | IC50 of block of channel currents (two electrode voltage clamp, Xenopus oocytes) [3] [nM]
COc1ccc(Cl)cc1C(=O)NCCc1ccc(S(=O)(=O)NC(=O)NC2CCCCC2)cc1 [glibenclamide] | 79 ± 7 | 310 ± 35 | reduction of the glucose-induced glucose increase | – | –
Conkunitzin-S1 (modifications not checked) KDRPSLCDLPADSGSGTKAEKRIYYNSARKQCLRFDYTGQGGNENNFRRTYDCQRTCLYT | – | – | – | 445 | 122
